# Read-outs that look alike come from different tables or passages of the source.
# Legend:
# [1] = target: T1, recombinant human HDAC-1 enzyme (rHDAC-1) (Homo sapiens, UniProt Q13547); test: Histone deacetylase inhibition, recombinant human HDAC-1; format: biochemical; settings: cloned recombinant human HDAC-1, Baculovirus insect cell expression; read-out: rHDAC-1 IC50
# T1 construct: made in house; host or cells: Baculovirus insect cell expression system
# Protocol: (§1) The reaction was stopped by adding acetic acid (0.04 M, final concentration) and HCl (250 mM, final concentration). The mixture was extracted with ethyl acetate and the released [^3H]-acetic acid was quantified by scintillation counting. For inhibition studies, the enzyme was preincubated with compounds at 4° C. for 30 minutes prior to initiation of the enzymatic assay. IC50 values for HDAC enzyme inhibitors were determined by performing dose response curves with individual compounds and determining the concentration of inhibitor producing fifty percent of the maximal inhibition.
# [2] = test system: acetylated histone H-4 in T24 human bladder cancer cells; test: Histone H4 acetylation in whole cells by immunoblots; format: cell-based
# Protocol: T24 human bladder cancer cells growing in culture were incubated with HDAC inhibitors for 16 hours. Histones were extracted from the cells after the culture period as described by M. Yoshida et al. (J. Biol. Chem. 265(28): 17174-17179 (1990)). 20 μg of total histone protein was loaded onto SDS/PAGE and transferred to nitrocellulose membranes. Membranes were probed with polyclonal antibodies specific for acetylated histone H-4 (Upstate Biotech Inc.), followed by horse radish peroxidase conjugated secondary antibodies (Sigma). Enhanced Chemiluminescence (ECL) (Amersham) detection was performed using Kodak films (Eastman Kodak). Acetylated H-4 signal was quantified by densitometry.
# [3] = test system: histone deacetylase enzyme in nuclear extracts from H446 cells (pooled HDACs); test: Histone deacetylase inhibition, H446 nuclear extracts (pooled HDACs); format: biochemical, human; settings: for IC50: H446 nuclear extract, [3H]-acetylated histone substrate; for pooled HDACs percent inhibition: percent inhibition at 20 μM (footnote)
# Protocol: HDAC inhibitors were screened against histone deacetylase enzyme in nuclear extracts prepared from the human small cell lung cancer cell line H446 (ATTC HTB-171) and against a cloned recombinant human HDAC-1 enzyme expressed and purified from a Baculovirus insect cell expression system.
# as §1, with “For deacetylase assays, 20,000 cpm of the [^3H]-metabolically labeled acetylated histone substrate (M. Yoshida et al., J. Biol. Chem. 265(28): 17174-17179 (1990)) was incubated with 30 μg of H446 nuclear extract or an equivalent amount of the cloned recombinant hHDAC-1 for 10 minutes at 37° C. The reaction” for “The reaction”
# [4] = T-24, read-out: EC50, concentration effective for reducing the acetylated H-4 signal by 50%, T24 cells, 16 hours incubation, immunoblot densitometry
# T1 sequence (Q13547 whole entry): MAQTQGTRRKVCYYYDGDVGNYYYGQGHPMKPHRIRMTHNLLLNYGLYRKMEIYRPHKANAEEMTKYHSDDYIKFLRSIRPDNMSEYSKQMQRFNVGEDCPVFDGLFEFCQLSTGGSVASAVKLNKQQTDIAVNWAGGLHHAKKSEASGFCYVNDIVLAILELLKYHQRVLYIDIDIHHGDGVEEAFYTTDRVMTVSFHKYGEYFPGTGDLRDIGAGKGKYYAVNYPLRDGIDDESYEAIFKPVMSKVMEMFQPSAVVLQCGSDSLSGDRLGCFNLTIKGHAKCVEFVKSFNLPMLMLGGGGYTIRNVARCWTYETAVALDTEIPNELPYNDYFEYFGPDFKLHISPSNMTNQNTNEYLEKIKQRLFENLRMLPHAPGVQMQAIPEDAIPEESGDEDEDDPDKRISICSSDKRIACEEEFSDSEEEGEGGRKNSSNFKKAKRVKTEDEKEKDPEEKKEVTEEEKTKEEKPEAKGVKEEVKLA
SMILES,IC50 [1] [nM],IC50 [3] [nM],further results
"Nc1ccccc1NC(=O)CCCCCCC(=NO)c1cccc(-c2ccccc2)c1 (mixture of isomers) [Compound 134, N-(2-Aminophenyl)-8-(E)-oximino-8-(3-biphenyl)octanamide]",1000,–,"EC50 [2, 4]: 10000 nM"
"O=C(CCCCCC/C(=N\O)c1cc2ccccc2s1)NO [Compound 99, N-Hydroxy-8-(Z)-oximino-8-(2-benzo[b]thiophene)octanamide]",8,35,–
"Cn1c(C(=O)CCCCCCC(=O)NO)cc2ccccc21 [Compound 103, N-Hydroxy-7-[2-((N-methyl)indolyl)carbonyl]heptanamide]",50,100,–
"O=C(CCCCCCC(=O)c1ccc(Oc2ccccc2)cc1)NO [Compound 104, N-Hydroxy-7-(4-phenoxybenzoyl)heptanamide]",160,–,pooled HDACs percent inhibition @ 1 μM [3]: 61%@ 1 μM
"COc1ccc2cc(C(=O)CCCCCCC(=O)NO)ccc2c1 [Compound 105a, N-Hydroxy-7-[2-(6-methoxy)naphthoyl]heptanamide]",10,–,pooled HDACs percent inhibition @ 1 μM [3]: 83%@ 1 μM
CSc1ncccc1C(=O)CCCCCCC(=O)NO [Compound 105b],20,–,pooled HDACs percent inhibition @ 1 μM [3]: 40%@ 1 μM
"O=C(CCCCCC(=O)c1cc2ccccc2[nH]1)NO [Compound 112, N-Hydroxy-6-[(2-indolyl)carbonyl]hexanamide]",39,250,–
"O=C(CCCCCC(=O)c1cc2ccccc2s1)NO [Compound 113, N-Hydroxy-6-[(2-benzo[b]thiophene)carbonyl]hexanamide]",130,–,pooled HDACs percent inhibition @ 1 μM [3]: 33%@ 1 μM
"Nc1ccccc1NC(=O)CCCCCCC(=O)c1ccc(Br)cc1 [Compound 114, N-(2-Aminophenyl)-7-(4-bromobenzoyl)heptanamide]",6300,> 20000,–
"Nc1ccccc1NC(=O)CCCCCCC(=O)c1ccc(-c2ccsc2)cc1 [Compound 117, N-(2-Aminophenyl)-7-[4-(3-thiophenyl)benzoyl]heptanamide]",9000,–,pooled HDACs percent inhibition [3]: 0%
"Nc1ccccc1NC(=O)CCCCCCC(=O)c1ccc(-c2cccnc2)cc1 [Compound 127, N-(2-Aminophenyl)-7-[4-(3-pyridyl)benzoyl]heptanamide]",10300,–,pooled HDACs percent inhibition [3]: 0%
"O=C(CCCCCCC(=O)c1ccc(Nc2ccccc2)cc1)NO [Compound 138a, N-Hydroxy-7-[4-(N-phenyl)benzoyl]heptanamide]",4,–,pooled HDACs percent inhibition @ 1 μM [3]: 83%@ 1 μM
"CN(c1ccccc1)c1ccc(C(=O)CCCCCCC(=O)NO)cc1 [Compound 138b, N-Hydroxy-7-[4-(N-methyl-N-phenyl)benzoyl]heptanamide]",8,49,–
"O=C(CCCCCCC(=O)c1ccc(Nc2ccccn2)cc1)NO [Compound 138d, N-Hydroxy-7-[4-(N-2-aminopyridyl)benzoyl]heptanamide]",4,20,–
"O=C(CCCCCCC(=O)c1ccc(Nc2nccs2)cc1)NO [Compound 138e, N-Hydroxy-7-[4-(N-2-aminothiazolyl)benzoyl]heptanamide]",4,20,–
"O=C(CCCCCCC(=O)c1ccc(N2CCOCC2)cc1)NO [Compound 138i, N-Hydroxy-7-[4-(N-morpholinyl)benzoyl]heptanamide]",33,100,–
"O=C(CCCCCCC(=O)c1cccnc1)NO [Compound 141a1, N-Hydroxy-7-[(3-pyridyl)carbonyl]heptanamide]",60,–,pooled HDACs percent inhibition @ 1 μM [3]: 22%@ 1 μM
"O=C(CCCCCCC(=O)c1ccc(-c2ccccc2)nc1)NO [Compound 145, N-Hydroxy-7-[(5-(2-phenyl)pyridyl)carbonyl]heptanamide]",8,–,"EC50 [2, 4]: 10000 nM"
"CC(=O)SCC(=O)CCCCCC(=O)c1cc2ccccc2s1 [Compound 160, 1-Acetylthio-2,8dioxo-8-(2-benzo[b]thiophene)-octane]",130,80,–
"O=C(CS)CCCCCC(=O)c1cc2ccccc2s1 [Compound 161, 1-Mercapto-2,8-dioxo-8-(2-benzo[b]thiophene)-octane]",71,94,–
"CC(=O)SCC(=O)CCCCCCC(=O)c1cc2ccccc2s1 [Compound 162, 1-Acetylthio-2,9-dioxo-9-(2-benzo[b]thiophene)-nonane]",35,40,–
"O=C(CS)CCCCCCC(=O)c1cc2ccccc2s1 [Compound 163, 1-Mercapto-2,9-dioxo-9-(2-benzo[b]thiophene)-nonane]",10,40,–
"Nc1ccccc1NC(=O)CCCCCCC(=O)c1cc2ccccc2s1 [Compound 164, N-(2-Aminophenyl)-7-[(2-benzo[b]thiophene)carbonyl]heptanamide]",2300,–,pooled HDACs percent inhibition [3]: 18%
"CC(=O)SCC(=O)CCCCCCC(=O)c1cc2ccccc2n1C [Compound 165, 1-Acetylthio-2,9-dioxo-9-(2-(N-methyl)indolyl)-nonane]",90,40,–
"Cn1c(C(=O)CCCCCCC(=O)CS)cc2ccccc21 [Compound 166, 1-Mercapto-2,9-dioxo-9-(2-N-methylindolyl)-nonane]",420,50,–
"CC(=O)SCC(=O)CCCCCCC(=O)c1cc2ccccc2[nH]1 [Compound 167, 1-Acetylthio-2,9-dioxo-9-(2-indolyl)-nonane]",400,300,–
"CC(CCCCC(=O)c1ccc2ccccc2c1)CC(=O)NO (stereo not drawn) [Compound 199, N-Hydroxy-3-methyl-7-(2-naphthoyl)heptanamide]",30,80,–
"O=C(CCCCCCOc1ccc(-c2ccccc2)cc1)NO [Compound 235, N-Hydroxy-7-(4-biphenyloxy)heptanamide]",–,–,"EC50 ([2]; T-24, 16 h, read-out: EC50, concentration effective for reducing the acetylated H-4 signal by 50%): 5000 nM"
O=C(CCCCCCC(=O)c1ccccc1)Nc1cccnc1 [Compound 252],> 20000,–,pooled HDACs percent inhibition [3]: 0%
O=C(NCCCCCCC(=O)c1ccccc1)Nc1ccccc1O [Compound 253],> 20000,–,pooled HDACs percent inhibition [3]: 0%

# Second part, led by results:
IC50 [1] [nM],IC50 [3] [nM],SMILES,further results
35,–,"O=C(CCCCCCC(=O)c1cnc2ccccc2c1)NO [Compound 141b, N-Hydroxy-7-[(3-quinolinyl)carbonyl]heptanamide]",pooled HDACs percent inhibition @ 1 μM [3]: 71%@ 1 μM
100,50,"CC(=O)SCC(=O)CCCCCCC(=O)c1ccccc1 [Compound 159a, 1-Acetylthio-2,9-dioxo-9-phenyl-nonane]",–
500,–,"CSCC(=O)CCCCCCC(=O)c1ccccc1 [Compound 159b, 1-Methylthio-2,9-dioxo-9-phenyl-nonane]",pooled HDACs percent inhibition @ 5 μM [3]: 14%@ 5 μM
5000,–,"O=C(CCCCCCC(=O)c1ccccc1)CSCc1ccccc1 [Compound 159c, 1-Benzylthio-2,9-dioxo-9-phenyl-nonane]",pooled HDACs percent inhibition @ 5 μM [3]: 0%@ 5 μM
5000,50000,"O=C(CCCCCCC(=O)c1ccccc1)CSc1ccccc1 [Compound 159d, 1-Phenylthio-2,9-dioxo-9-phenyl-nonane]",–
50,50,"O=C(CS)CCCCCCC(=O)c1ccccc1 [Compound 159e, 1-Mercapto-2,9-dioxo-9-phenyl-nonane]",–
700,350,"O=C(CCCCCCC(=O)c1ccccc1)CSC(=O)c1ccccc1 [Compound 159f, 1-Benzoylthio-2,9-dioxo-9-phenyl-nonane]",–
50,–,"O=C(CCCCCn1cnc2ccccc2c1=O)NO [Compound 238a, N-Hydroxy-6-[3-(4-Oxo-4H-quinazolinyl)]hexanamide]",pooled HDACs percent inhibition @ 1 μM [3]: 0%@ 1 μM
760,–,"O=C(CCCCCn1nnc2ccccc2c1=O)NO [Compound 238b, N-Hydroxy-6-[3-(4-oxo-4H-benzo[d][1,2,3]triazinyl)]hexanamide]",pooled HDACs percent inhibition @ 1 μM [3]: 20%@ 1 μM
8100,–,Nc1ccccc1NC(=O)CCCCCn1nnc2ccccc2c1=O [Compound 239b],pooled HDACs percent inhibition [3]: 14%
1600,–,"Nc1ccccc1NC(=O)CCCCCN1C(=O)c2ccccc2C1=O [Compound 243a, N-(2-Aminophenyl)-6-(N-phthaloyl)hexanamide]",pooled HDACs percent inhibition [3]: 6%
